Measured values: patent US20230104936A1, “TRPML MODULATORS” (Casma Therapeutics, Inc., priority 2019, published 2023)

Test system: TFEB
Test: TFEB nuclear translocation assay, HeLa wt cells
Format: cell-based
Conditions: Homo sapiens, HeLa, 2 h, 2 hrs compound treatment, Table 1 does not say HeLa wt or TRPML1 KO
Method in brief: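 AC50 derived from the ratio of nuclear to perinuclear ring (−5 μm) anti-TFEB immunofluorescence, imaged at ×20 over four fields per well. HeLa wt or TRPML1 KO cells were exposed to compounds for 2 hrs at 37° C, then PFA-fixed and counterstained with Hoechst.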

Row | Structure (SMILES) | AC50
1 | O=S(=O)(Nc1ccccc1N1CCC(c2ccc(F)cc2F)CC1)c1ccc(C(F)F)nc1 [Compound A-136, 6-(difluoromethyl)-N-{2-[4-(2,4-difluorophenyl)piperidin-1-yl]phenyl}pyridine-3-sulfonamide] | ≤ 2000 nM
2 | O=S(=O)(Nc1ccccc1N1CCC(c2ccc(F)cc2F)CC1)c1ccc(C(F)F)cn1 [Compound A-137, 5-(difluoromethyl)-N-{2-[4-(2,4-difluorophenyl)piperidin-1-yl]phenyl}pyridine-2-sulfonamide] | 2010 to 8000 nM
3 | Cc1ccc(S(=O)(=O)Cc2ccccc2N2CCC(c3ccc(Cl)cc3F)CC2)cc1 [Compound A-138, 4-(4-chloro-2-fluorophenyl)-1-(2-(tosylmethyl)phenyl)piperidine] | ≤ 2000 nM
4 | CN(C)S(=O)(=O)c1ccc(S(=O)(=O)Nc2ccnnc2N2CCC(c3ccc(Cl)cc3F)CC2)cc1 [Compound A-139, N4-{3-[4-(4-chloro-2-fluorophenyl)piperidin-1-yl]pyridazin-4-yl}-N1,N1-dimethylbenzene-1,4-disulfonamide] | ≥ 10000 nM
5 | COc1ccc(S(=O)(=O)Nc2ccc3c(cnn3C)c2N2CCN(c3ncc(Cl)cc3F)CC2)cc1 [Compound A-140, N-{4-[4-(5-chloro-3-fluoropyridin-2-yl)piperazin-1-yl]-1-methyl-1H-indazol-5-yl}-4-methoxybenzene-1-sulfonamide] | ≤ 2000 nM
6 | CN(C)S(=O)(=O)c1ccc(S(=O)(=O)Nc2ccccc2N2CCC(O)(c3ccc(F)cc3F)CC2)cc1 [Compound A-141, N4-{2-[4-(2,4-difluorophenyl)-4-hydroxypiperidin-1-yl]phenyl}-N1,N1-dimethylbenzene-1,4-disulfonamide] | ≤ 2000 nM
7 | CS(=O)(=O)c1ccc(S(=O)(=O)Nc2ccccc2N2CCC(O)(c3ccc(Cl)cc3F)CC2)cc1 [Compound A-142, N-{2-[4-(4-chloro-2-fluorophenyl)-4-hydroxypiperidin-1-yl]phenyl}-4-methanesulfonylbenzene-1-sulfonamide] | 2010 to 8000 nM
8 | CN(C)S(=N)(=O)c1ccc(S(=O)(=O)Nc2ccccc2N2CCC(O)(c3ccc(Cl)cc3F)CC2)cc1 (stereo not shown) [Compound A-143, 4-({2-[4-(4-chloro-2-fluorophenyl)-4-hydroxypiperidin-1-yl]phenyl}sulfamoyl)-N,N-dimethylbenzene-1-sulfonoimidamide] | ≤ 2000 nM
9 | Cc1ccc([S+]([O-])c2ccccc2N2CCC(c3ccc(Cl)cc3F)CC2)cc1 (stereo not shown) [Compound A-144, 4-(4-chloro-2-fluorophenyl)-1-(2-(p-tolylsulfinyl)phenyl)piperidine] | ≥ 10000 nM
10 | Cc1ccc([S+]([O-])Cc2ccccc2N2CCC(c3ccc(Cl)cc3F)CC2)cc1 (stereo not shown) [Compound A-145, 4-(4-chloro-2-fluorophenyl)-1-(2-((p-tolylsulfinyl)methyl)phenyl)piperidine] | ≥ 10000 nM
11 | CN1c2ccccc2N(S(=O)(=O)c2ccc(S(=O)(=O)N(C)C)cc2)CC1c1ccc(Cl)cc1F (stereo not shown) [Compound A-146, 4-{[3-(4-chloro-2-fluorophenyl)-4-methyl-1,2,3,4-tetrahydroquinoxalin-1-yl]sulfonyl}-N,N-dimethylbenzene-1-sulfonamide] | ≤ 2000 nM
12 | COc1ccc(S(=O)(=O)Nc2ccccc2N2CCC(c3ncc(Cl)cc3F)CC2)cc1 [Compound A-147, N-{2-[4-(5-chloro-3-fluoropyridin-2-yl)piperidin-1-yl]phenyl}-4-methoxybenzene-1-sulfonamide] | 2010 to 8000 nM
13 | CN(C)S(=O)(=O)c1ccc(S(=O)(=O)Nc2ccccc2N2CCC(O)(c3ccccc3)CC2)cc1 [Compound A-148, N4-[2-(4-hydroxy-4-phenylpiperidin-1-yl)phenyl]-N1,N1-dimethylbenzene-1,4-disulfonamide] | ≤ 2000 nM
14 | CN(C)S(=O)(=O)c1ccc(S(=O)(=O)Nc2ccccc2N2CCC(c3ccc(Cl)cc3F)CC2)c(F)c1 [Compound A-149, N4-{2-[4-(4-chloro-2-fluorophenyl)piperidin-1-yl]phenyl}-3-fluoro-N1,N1-dimethylbenzene-1,4-disulfonamide] | ≤ 2000 nM
15 | CN(C)S(=O)(=O)c1ccc(S(=O)(=O)Nc2ccccc2N2CCC(N)(c3ccc(Cl)cc3F)CC2)cc1 [Compound A-150, N4-{2-[4-amino-4-(4-chloro-2-fluorophenyl)piperidin-1-yl]phenyl}-N1,N1-dimethylbenzene-1,4-disulfonamide] | ≤ 2000 nM
16 | Cc1ccc(S(=N)(=O)Nc2ccccc2N2CCC(c3ccc(Cl)cc3F)CC2)cc1 (stereo not shown) [Compound A-151, N-{2-[4-(4-chloro-2-fluorophenyl)piperidin-1-yl]phenyl}-4-methylbenzene-1-sulfonoimidamide] | 2010 to 8000 nM
17 | CS(=N)(=O)c1ccc(S(=O)(=O)Nc2ccccc2N2CCC(O)(c3ccc(Cl)cc3F)CC2)cc1 (stereo not shown) [Compound A-152, N-{2-[4-(4-chloro-2-fluorophenyl)-4-hydroxypiperidin-1-yl]phenyl}-4-[iimino(methyl)oxo-λ^6-sulfanyl]benzene-1-sulfonamide] | ≥ 10000 nM

Row | Structure (SMILES) | AC50
18 | CC(=O)NC1(c2ccc(Cl)cc2F)CCN(c2ccccc2NS(=O)(=O)c2ccc(S(=O)(=O)N(C)C)cc2)CC1 [Compound A-153, N-[4-(4-chloro-2-fluorophenyl)-1-{2-[4-(dimethylsulfamoyl)benzenesulfonamido]phenyl}piperidin-4-yl]acetamide] | 2010 to 8000 nM
19 | CS(=O)(=O)c1ccc(S(=O)(=O)Nc2cc(F)ccc2N2CCC(c3c(F)cccc3F)CC2)cc1 [Compound A-154, N-{2-[4-(2,6-difluorophenyl)piperidin-1-yl]-5-fluorophenyl}-4-methanesulfonylbenzene-1-sulfonamide] | ≤ 2000 nM
20 | CS(=O)(=O)c1ccc(S(=O)(=O)Nc2ccc(F)cc2N2CCC(c3c(F)cccc3F)CC2)cc1 [Compound A-155, N-{2-[4-(2,6-difluorophenyl)piperidin-1-yl]-4-fluorophenyl}-4-methanesulfonylbenzene-1-sulfonamide] | 2010 to 8000 nM
21 | CN(C)S(=O)(=O)c1ccc(S(=O)(=O)c2ccccc2N2CCC(c3ccc(Cl)cc3F)CC2)cc1 [Compound A-156, 4-((2-(4-(4-chloro-2-fluorophenyl)piperidin-1-yl)phenyl)sulfonyl)-N,N-dimethylbenzenesulfonamide] | 2010 to 8000 nM
22 | O=S(=O)(Nc1ccccc1N1CCC(c2ccc(Cl)cc2F)CC1)c1ccc(C(O)C(F)(F)F)cc1 (stereo not shown) [Compound A-157, N-{2-[4-(4-chloro-2-fluorophenyl)piperidin-1-yl]phenyl}-4-(2,2,2-trifluoro-1-hydroxyethyl)benzene-1-sulfonamide] | ≤ 2000 nM
23 | O=S(=O)(Nc1ccccc1N1CCC(c2ccc(Cl)cc2F)CC1)c1ccc(C(F)(F)F)c(F)c1 [Compound A-158, N-{2-[4-(4-chloro-2-fluorophenyl)piperidin-1-yl]phenyl}-3-fluoro-4-(trifluoromethyl)benzene-1-sulfonamide] | ≤ 2000 nM
24 | O=S(=O)(Nc1ccccc1N1CCC(c2ccc(Cl)cc2F)CC1)c1ccc(C(F)(F)F)cc1F [Compound A-159, N-{2-[4-(4-chloro-2-fluorophenyl)piperidin-1-yl]phenyl}-2-fluoro-4-(trifluoromethyl)benzene-1-sulfonamide] | 2010 to 8000 nM
25 | C[S+]([O-])c1ccc(S(=O)(=O)Nc2ccccc2N2CCC(c3ccc(F)cc3F)CC2)cc1 (stereo not shown) [Compound A-160, N-{2-[4-(2,4-difluorophenyl)piperidin-1-yl]phenyl}-4-methanesulfinylbenzene-1-sulfonamide] | 2010 to 8000 nM
26 | CN(C)S(=O)(=O)c1ccc(S(=O)(=O)Nc2ccccc2N2CCC(CO)(c3ccc(F)cc3F)CC2)cc1 [Compound A-161, N4-{2-[4-(2,4-difluorophenyl)-4-(hydroxymethyl)piperidin-1-yl]phenyl}-N1,N1-dimethylbenzene-1,4-disulfonamide] | 2010 to 8000 nM
27 | CN(C)S(=O)(=O)c1ccc(S(=O)(=O)Nc2ccccc2N2CC(O)(c3ccc(Cl)cc3F)C2)cc1 [Compound A-162, N4-{2-[3-(4-chloro-2-fluorophenyl)-3-hydroxyazetidin-1-yl]phenyl}-N1,N1-dimethylbenzene-1,4-disulfonamide] | 2010 to 8000 nM
28 | CN(C)S(=O)(=O)c1ccc(S(=O)(=O)Nc2ccccc2N2CCC(C(N)=O)(c3ccc(F)cc3F)CC2)cc1 [Compound A-163, 4-(2,4-difluorophenyl)-1-{2-[4-(dimethylsulfamoyl)benzenesulfonamido]phenyl}piperidine-4-carboxamide] | ≥ 10000 nM
29 | CP(C)(=O)c1ccc(S(=O)(=O)Nc2ccccc2N2CCN(c3ccc(F)cc3F)CC2)cc1 [Compound A-165, N-{2-[4-(2,4-difluorophenyl)piperazin-1-yl]phenyl}-4-(dimethylphosphoryl)benzene-1-sulfonamide] | 2010 to 8000 nM
30 | CS(=N)(=O)c1ccc(S(=O)(=O)Nc2ccccc2N2CCC(c3c(F)cccc3F)CC2)cc1 (stereo not shown) [Compound A-166, N-{2-[4-(2,6-difluorophenyl)piperidin-1-yl]phenyl}-4-[imino(methyl)oxo-λ^6-sulfanyl]benzene-1-sulfonamide] | 2010 to 8000 nM
31 | COc1ccc(S(=O)(=O)Nc2ccccc2-c2ccc(F)cc2F)cc1 [Compound A-167, N-(2′,4′-difluoro-[1,1′-biphenyl]-2-yl)-4-methoxybenzenesulfonamide] | 2010 to 8000 nM
32 | CN(C)S(=O)(=O)c1ccc(C(Nc2ccccc2N2CCC(c3ccc(Cl)cc3F)CC2)C(F)(F)F)cc1 (stereo not shown) [Compound A-170, 4-[1-({2-[4-(4-chloro-2-fluorophenyl)piperidin-1-yl]phenyl}amino)-2,2,2-trifluoroethyl]-N,N-dimethylbenzene-1-sulfonamide] | ≤ 2000 nM
33 | CN(C)S(=O)(=O)c1ccc(S(=O)(=O)N2CC(c3ccc(Cl)cc3F)Nc3ccccc32)cc1 (stereo not shown) [Compound A-171, 4-{[3-(4-chloro-2-fluorophenyl)-1,2,3,4-tetrahydroquinoxalin-1-yl]sulfonyl}-N,N-dimethylbenzene-1-sulfonamide] | 2010 to 8000 nM
34 | CC(=O)N(C)C1(c2ccc(Cl)cc2F)CCN(c2ccccc2NS(=O)(=O)c2ccc(S(=O)(=O)N(C)C)cc2)CC1 [Compound A-172, N-[4-(4-chloro-2-fluorophenyl)-1-{2-[4-(dimethylsulfamoyl)benzenesulfonamido]phenyl}piperidin-4-yl]-N-methylacetamide] | 2010 to 8000 nM
